# According to patent EP1608360B1, “SYNERGISTIC HEPATOPROTECTIVE COMPOSITION AND A METHOD THEREOF” (COUNCIL OF SCIENTIFIC AND INDUSTRIAL RESEARCH, priority 2003, dated 2004):
# Values joined by “and” are separate entries in the source; they are usually repeats but may differ in a detail not shown here. Equal entries are not always repeated. Where two headings read alike, the source gives them in different places.
# Columns and labels:
# [1] = tested on: Acetaminophen (APAP) induced hepatic injury; assay: Hepatoprotective activity (in vivo), pre-treatment, diethyl-ether inhalation plus Acetaminophen (APAP), prophylactic study (Table 4); set-up: species or system Mice: Swiss albino; settings: 50 mg/kg p.o. at 72h, 48h, 24h, 1h before diethyl-ether and 1h after APAP 200mg/kg i.p.
# Procedure: Table-4: Hepatoprotective activity (in vivo) of TCA and silymarin (Pre-treatment) fed at 72h, 48h, 24h, 1h before inhalation of diethyl - ether and 1h after Acetaminophen (APAP) 200mg/kg given i.p. 6h after exposure to diethyl - ether (prophylactic study).
# [2] = tested on: paracetamol (APAP) induced hepatic injury; assay: Hepatoprotective activity (in vivo) against paracetamol (APAP) induced hepatic injury in mice, prophylactic study (Table 1); settings: 50 mg/kg p.o. + APAP
# Procedure: All the list materials were administered P.O. routes in a uniform dose level of 50 mg kg-1. Formulation is extremely safe having a therapeutic index of > 40. No mortality was recorded upto a dose of 2g-kg-1 p.o. in mice.
# • Fig.1 Low Power view 10 X of bridging necroses • Fig.2 High Power view 40X of bridging necroses • Fig.3 High Power view 40X of centrilobular necrosis • Fig.4 Lower Power view 10X of centrilobular necrosis • Fig.5 Effect of paracetamol on liver when given along with high doses of hepatoprotective formulations • Fig.6 Ballooning degeneration of cells along with cytoplasmic rarefaction clearing Table 1: Hepatoprotective activity (in vivo) of synergistic formulation and Silymarin agains paracetamol (APAP) induced hepatic injury in mice2. (prophylactic study)
# [3] = After 72 hrs; cited from earlier work
# [4] = tested on: Paracetamol (APAP) induced hepatic injury; assay type: in vivo; settings: Table-2
# Procedure: […] Formulation is extremely safe having a therapeutic index of > 40. No mortality was recorded upto a dose of 2g-kg-1 p.o. in mice.
# Table-2: Hepatoprotective potential of Andrographolide (AP) against Paracetamol (APAP) induced hepatic injury in Rodents (prophylactic). […]
# [5] = 6.25 mg kg^-1 + APAP, prophylactic
# [6] = 12.5 mg kg^-1 + APAP, prophylactic
# [7] = 25 mg kg^-1 + APAP, prophylactic
# [8] = 50 mg kg^-1 + APAP, prophylactic
# [9] = 50 mg kg^-1 + APAP, prophylactic, listed as Andrographolide
# [10] = 50 mg kg^-1 + APAP, prophylactic, listed as andrographolide
# [11] = 50 mg kg^-1 only (per se), no APAP
# [12] = 100 mg kg^-1 + APAP, prophylactic
structure (smiles),measurement,setting,value
"CCCCCCCC/C=C/CCCCCCCCCCCCCC(=O)O [TCA, trans-tetracos-15-enoic acid]",Hepatic Lipid peroxidation,[1],55.48 n moles MDA/g liver
same,Serum ALP,[1],52.96 µ mole of p-nitrophenol formed/min/ L
same,Serum Bilirubin,[1],56.35 mg %
same,Serum GOT,[1],54.92 Units
same,Serum GPT,[1],57.99 Units
same,Serum Triglycerides,[1],66.05 mg %
same,Serum ALP,[1]; listed as t-tca,52.96 µ mole of p-nitrophenol formed
same,"Hepatic Glutathione, percent hepatoprotective activity",[2],53.15%
same,"Hepatic Lipid peroxidation, percent hepatoprotective activity",[2],64.15%
same,"Serum ALP, percent hepatoprotective activity",[2],82.35%
same,"Serum GOT, percent hepatoprotective activity",[2],62.00%
same,"Serum GPT, percent hepatoprotective activity",[2],75.00%
same,"Serum Triglycerides, percent hepatoprotective activity",[2],66.45%
"C=C1CC[C@@H]2[C@](C)(CO)[C@H](O)CC[C@@]2(C)[C@@H]1C/C=C1/C(=O)OC[C@H]1O [AP, andrographolide]","excreted, mostly by urinary excretion",[3],~90%
same,Hepatic GSH (glutathione),[4]; [5],2.85±0.19 µ mole GSH/g liver
same,"Hepatic GSH, percent hepatoprotective activity",[4]; [5],(17.40) %
same,Hepatic LP (lipid peroxidation),[4]; [5],58.96±2.04 n mole MDA/g liver
same,"Hepatic LP, percent hepatoprotective activity",[4]; [5],(10.61) %
same,Hepatic Protein,[4]; [5],133.20±5.39 mg %
same,"Hepatic Protein, percent hepatoprotective activity",[4]; [5],(6.75) %
same,Serum ALP,[4]; [5],55.84±2.27 µ mole of p-nitrophenol formed /min/L
same,"Serum ALP, percent hepatoprotective activity",[4]; [5],(18.49) %
same,Serum Albumin,[4]; [5],3.10±0.08 g %
same,"Serum Albumin, percent hepatoprotective activity",[4]; [5],(32.84) %
same,Serum GOT,[4]; [5],992.69±66.36 Units
same,"Serum GOT, percent hepatoprotective activity",[4]; [5],(14.54) %
same,Serum GPT,[4]; [5],1224.99±63.65 Units
same,"Serum GPT, percent hepatoprotective activity",[4]; [5],(20.76) %
same,Serum LDH,[4]; [5],1454.48±66.02 units
same,"Serum LDH, percent hepatoprotective activity",[4]; [5],(25.45) %
same,Serum TG,[4]; [5],63.92±2.11 mg %
same,"Serum TG, percent hepatoprotective activity",[4]; [5],(24.17) %
same,Hepatic GSH (glutathione),[4]; [6],3.78±0.19 µ mole GSH/g liver
same,"Hepatic GSH, percent hepatoprotective activity",[4]; [6],(40.19) %
same,Hepatic LP (lipid peroxidation),[4]; [6],53.10±2.07 n mole MDA/g liver
same,"Hepatic LP, percent hepatoprotective activity",[4]; [6],(46.23) %
same,Hepatic Protein,[4]; [6],141.36±4.25 mg %
same,"Hepatic Protein, percent hepatoprotective activity",[4]; [6],(23.52) %
same,Serum ALP,[4]; [6],49.41±1.35 µ mole of p-nitrophenol formed /min/L
same,"Serum ALP, percent hepatoprotective activity",[4]; [6],(37.13) %
same,Serum Albumin,[4]; [6],3.29±0.15 g %
same,"Serum Albumin, percent hepatoprotective activity",[4]; [6],(47.02) %
same,Serum GOT,[4]; [6],816.54±47.10 Units
same,"Serum GOT, percent hepatoprotective activity",[4]; [6],(32.07) %
same,Serum GPT,[4]; [6],1051.99±46.30 Units
same,"Serum GPT, percent hepatoprotective activity",[4]; [6],(33.12) %
same,Serum LDH,[4]; [6],1255.65±61.32 units
same,"Serum LDH, percent hepatoprotective activity",[4]; [6],(37.14) %
same,Serum TG,[4]; [6],56.59±2.42 mg %
same,"Serum TG, percent hepatoprotective activity",[4]; [6],(41.39) %
same,Hepatic GSH (glutathione),[4]; [7],4.15±0.15 µ mole GSH/g liver
same,"Hepatic GSH, percent hepatoprotective activity",[4]; [7],(49.26) %
same,Hepatic LP (lipid peroxidation),[4]; [7],50.62±2.23 n mole MDA/g liver
same,"Hepatic LP, percent hepatoprotective activity",[4]; [7],(51.45) %
same,Hepatic Protein,[4]; [7],148.36±3.57 mg %
same,"Hepatic Protein, percent hepatoprotective activity",[4]; [7],(37.92) %
same,Serum ALP,[4]; [7],43.92±2.19 µ mole of p-nitrophenol formed /min/L
same,"Serum ALP, percent hepatoprotective activity",[4]; [7],(53.04) %
same,Serum Albumin,[4]; [7],3.32±0.15 g %
same,"Serum Albumin, percent hepatoprotective activity",[4]; [7],(49.25) %
same,Serum GOT,[4]; [7],720.76±50.62 Units
same,"Serum GOT, percent hepatoprotective activity",[4]; [7],(41.40) %
same,Serum GPT,[4]; [7],881.23±36.85 Units
same,"Serum GPT, percent hepatoprotective activity",[4]; [7],(45.45) %
same,Serum LDH,[4]; [7],1014.27±44.04 units
same,"Serum LDH, percent hepatoprotective activity",[4]; [7],(51.34) %
same,Serum TG,[4]; [7],51.68±2.73 mg %
same,"Serum TG, percent hepatoprotective activity",[4]; [7],(52.92) %
same,Hepatic GSH (glutathione),[4]; [8],4.400±0.25 µ mole GSH/g liver
same,"Hepatic GSH, percent hepatoprotective activity",[4]; [8],(57.35) %
same,Hepatic LP (lipid peroxidation),[4]; [8],47.90±1.93 n mole MDA/g liver
same,"Hepatic LP, percent hepatoprotective activity",[4]; [8],(58.35) %
same,Hepatic Protein,[4]; [8],155.34±3.11 mg %
same,"Hepatic Protein, percent hepatoprotective activity",[4]; [8],(52.27) %
same,Serum ALP,[4]; [8],40.18±2.03 µ mole of p-nitrophenol formed /min/L
same,"Serum ALP, percent hepatoprotective activity",[4]; [8],(63.88) %
same,Serum Albumin,[4]; [8],3.55±0.18 g %
same,"Serum Albumin, percent hepatoprotective activity",[4]; [8],(66.41) %
same,Serum GOT,[4]; [8],534.56±19.65 Units
same,"Serum GOT, percent hepatoprotective activity",[4]; [8],(60.14) %
same,Serum GPT,[4]; [8],760.73±49.35 Units
same,"Serum GPT, percent hepatoprotective activity",[4]; [8],(54.15) %
same,Serum LDH,[4]; [8],952.45±34.82 units
same,"Serum LDH, percent hepatoprotective activity",[4]; [8],(54.97) %
same,Serum TG,[4]; [8],49.22±1.78 mg %
same,"Serum TG, percent hepatoprotective activity",[4]; [8],(58.70) %
same,"Hepatic GSH, percent hepatoprotective activity",[4]; [9],57.35%
same,"Hepatic LP, percent hepatoprotective activity",[4]; [9],58.35%
same,"Hepatic Protein, percent hepatoprotective activity",[4]; [9],52.27%
same,"Serum ALP, percent hepatoprotective activity",[4]; [9],63.88%
same,"Serum Albumin, percent hepatoprotective activity",[4]; [9],66.41%
same,"Serum GOT, percent hepatoprotective activity",[4]; [9],60.14%
same,"Serum GPT, percent hepatoprotective activity",[4]; [9],54.15%
same,"Serum LDH, percent hepatoprotective activity",[4]; [9],54.97%
same,"Serum TG, percent hepatoprotective activity",[4]; [9],58.70%
same,"Hepatic GSH, percent hepatoprotective activity",[4]; [10],57.35%
same,"Hepatic LP, percent hepatoprotective activity",[4]; [10],58.35% and 55.35%
same,"Serum ALP, percent hepatoprotective activity",[4]; [10],63.88%
same,"Serum Albumin, percent hepatoprotective activity",[4]; [10],66.41%
same,"Serum GOT, percent hepatoprotective activity",[4]; [10],60.14%
same,"Serum GPT, percent hepatoprotective activity",[4]; [10],54.15%
same,"Serum LDH, percent hepatoprotective activity",[4]; [10],54.97%
same,"Serum TG, percent hepatoprotective activity",[4]; [10],58.70%
same,Hepatic GSH (glutathione),[4]; [11],6.40±0.21 µ mole GSH/g liver
same,Hepatic LP (lipid peroxidation),[4]; [11],31.60±2.09 n mole MDA/g liver
same,Hepatic Protein,[4]; [11],182.05±10.23 mg %
same,Serum ALP,[4]; [11],27.72±2.71 µ mole of p-nitrophenol formed /min/L
same,Serum Albumin,[4]; [11],3.96±0.08 g %
same,Serum GOT,[4]; [11],134.92±4.25 Units
same,Serum GPT,[4]; [11],126.11±3.09 Units
same,Serum LDH,[4]; [11],181.02±10.29 units
same,Serum TG,[4]; [11],32.29±2.31 mg %
same,Hepatic GSH (glutathione),[4]; [12],4.60±0.24 µ mole GSH/g liver
same,"Hepatic GSH, percent hepatoprotective activity",[4]; [12],(60.29) %
same,Hepatic LP (lipid peroxidation),[4]; [12],45.30±2.08 n mole MDA/g liver
same,"Hepatic LP, percent hepatoprotective activity",[4]; [12],(64.95) %
same,Hepatic Protein,[4]; [12],146.78±5.09 mg %
same,"Hepatic Protein, percent hepatoprotective activity",[4]; [12],(34.66) %
same,Serum ALP,[4]; [12],44.14±2.24 µ mole of p-nitrophenol formed /min/L
same,"Serum ALP, percent hepatoprotective activity",[4]; [12],(52.40) %
same,Serum Albumin,[4]; [12],3.38±0.26 g %
same,"Serum Albumin, percent hepatoprotective activity",[4]; [12],(53.73) %
same,Serum GOT,[4]; [12],795.92±27.59 Units
same,"Serum GOT, percent hepatoprotective activity",[4]; [12],(34.12) %
same,Serum GPT,[4]; [12],764.37±44.32 Units
same,"Serum GPT, percent hepatoprotective activity",[4]; [12],(53.89) %
same,Serum LDH,[4]; [12],1256.05±33.97 units
same,"Serum LDH, percent hepatoprotective activity",[4]; [12],(37.11) %
same,Serum TG,[4]; [12],47.39±2.13 mg %
same,"Serum TG, percent hepatoprotective activity",[4]; [12],(63.00) %
